Data as given in patent US20250241914A1, “BIFUNCTIONAL PHARMACEUTICAL COMPOUNDS” (DE MONTFORT UNIVERSITY, priority 2024, published 2025).
In brackets after ≈: the same amount, converted by molar mass. Read-outs that look alike come from different tables or passages of the source.

How the values were obtained:
[1] = tested on: M. tuberculosis H37Rv (ATCC 25618 Wild-type); assay: microbe, parasite or virus in culture; format: cell-based
[2] = tested on: M. tuberculosis HN-878 (wild-type); assay: microbe, parasite or virus in culture; format: cell-based
S. aureus NCTC 12493 = assay: in vitro antistaphylococcal activity, broth microdilution method (MIC/MBC); format: cell-based, Staphylococcus aureus; conditions: for MIC / MBC: Staphylococcus aureus; for MIC: NCTC12493, lowest concentration inhibiting visible growth; for MBC: NCTC12493, lowest concentration reducing viability of inoculum by ≥99.9%, 24 h at 37° C.
[3] = Mycobacterium tuberculosis, 120 h; read-out: Mycobacterium tuberculosis strain MIC90, H37Rv
[4] = Mycobacterium tuberculosis, 120 h; read-out: Mycobacterium tuberculosis strain MIC90, HN-878

Compound	MIC90 ([1]; Mycobacterium tuberculosis, 120 h, read-out: Mycobacterium tuberculosis strain MIC90, H37Rv) [µM]	MIC90 ([2]; Mycobacterium tuberculosis, 120 h, read-out: Mycobacterium tuberculosis strain MIC90, HN-878) [µM]	MBC value relative to MIC value (S. aureus NCTC 12493)	MIC (S. aureus NCTC 12493) [µg/mL]	MBC (S. aureus NCTC 12493) [µg/mL]	MIC90 [1, 3] [µM]	MIC90 [2, 4] [µM]
CO[C@H]1/C=C/O[C@@]2(C)Oc3c(C)c(O)c4c(O)c(c(/C=N/N5CCN(C)CC5)c(O)c4c3C2=O)NC(=O)/C(C)=C\C=C\[C@H](C)[C@H](O)[C@@H](C)[C@@H](O)[C@@H](C)[C@H](OC(C)=O)[C@@H]1C [Rifampicin, reference compound]	0.0045 (≈ 0.0037 µg/mL)	0.02 (≈ 0.0165 µg/mL)	16 times	0.25 (≈ 0.304 µM)	4 (≈ 4.86 µM)		
NNC(=O)c1ccncc1 [Isoniazid, reference compound]						0.28 (≈ 0.0384 µg/mL)	0.29 (≈ 0.0398 µg/mL)
CO[C@H]1/C=C/O[C@@]2(C)Oc3c(C)c(O)c4c(O)c(c(CNCCOCCOCCOCn5cc(CCn6cc(F)c(=O)[nH]c6=O)nn5)c(O)c4c3C2=O)NC(=O)/C(C)=C\C=C\[C@H](C)[C@H](C)[C@@H](C)[C@@H](O)[C@@H](C)[C@H](OC(C)=O)[C@@H]1C [Compound 3B]			the same	2 (≈ 1.83 µM)	2 (≈ 1.83 µM)	0.0039 (≈ 0.00427 µg/mL)	0.096 ± 0.064 (≈ 0.105 µg/mL)
CO[C@H]1/C=C/O[C@@]2(C)Oc3c(C)c(O)c4c(O)c(c(CNCCCn5cc(CCn6cc(F)c(=O)[nH]c6=O)nn5)c(O)c4c3C2=O)NC(=O)/C(C)=C\C=C\[C@H](C)[C@H](C)[C@@H](C)[C@@H](O)[C@@H](C)[C@H](OC(C)=O)[C@@H]1C [Compound 3A]			the same	1 (≈ 1.01 µM)	1 (≈ 1.01 µM)	0.0039 (≈ 0.00386 µg/mL)	0.059 ± 0.01 (≈ 0.0584 µg/mL)
CO[C@H]1/C=C/O[C@@]2(C)Oc3c(C)c(O)c4c(O)c(c(CNCCOCCOCCOCn5cc(CCCn6cc(F)c(=O)[nH]c6=O)nn5)c(O)c4c3C2=O)NC(=O)/C(C)=C\C=C\[C@H](C)[C@H](C)[C@@H](C)[C@@H](O)[C@@H](C)[C@H](OC(C)=O)[C@@H]1C [Compound 3C]						0.0034 (≈ 0.00377 µg/mL)	0.07 ± 0.042 (≈ 0.0776 µg/mL)
O=c1[nH]cc(F)c(=O)[nH]1 [Compound 5-FU, 5-Fluorouracil, reference compound]			8 times	2 (≈ 15.4 µM)	16 (≈ 123 µM)		
